Data set [1] deals with T1, GIRK1/4 (Homo sapiens, UniProt P48544+P48549).
T1 sequence (P48549 1-501): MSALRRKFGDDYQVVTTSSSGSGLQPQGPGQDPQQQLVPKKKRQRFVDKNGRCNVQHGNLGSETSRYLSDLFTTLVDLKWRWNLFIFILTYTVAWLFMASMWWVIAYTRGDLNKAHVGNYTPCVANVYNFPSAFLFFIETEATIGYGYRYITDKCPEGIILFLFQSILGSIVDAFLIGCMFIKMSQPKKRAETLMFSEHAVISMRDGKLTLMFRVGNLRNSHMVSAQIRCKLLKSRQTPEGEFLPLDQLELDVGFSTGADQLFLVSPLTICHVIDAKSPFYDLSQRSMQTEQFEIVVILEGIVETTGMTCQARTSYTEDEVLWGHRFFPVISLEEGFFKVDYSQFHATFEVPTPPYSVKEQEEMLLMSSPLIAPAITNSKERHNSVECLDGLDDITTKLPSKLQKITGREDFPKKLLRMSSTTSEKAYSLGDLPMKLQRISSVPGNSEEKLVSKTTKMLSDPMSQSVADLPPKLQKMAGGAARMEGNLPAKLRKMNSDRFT
T1 sequence (P48544 1-419): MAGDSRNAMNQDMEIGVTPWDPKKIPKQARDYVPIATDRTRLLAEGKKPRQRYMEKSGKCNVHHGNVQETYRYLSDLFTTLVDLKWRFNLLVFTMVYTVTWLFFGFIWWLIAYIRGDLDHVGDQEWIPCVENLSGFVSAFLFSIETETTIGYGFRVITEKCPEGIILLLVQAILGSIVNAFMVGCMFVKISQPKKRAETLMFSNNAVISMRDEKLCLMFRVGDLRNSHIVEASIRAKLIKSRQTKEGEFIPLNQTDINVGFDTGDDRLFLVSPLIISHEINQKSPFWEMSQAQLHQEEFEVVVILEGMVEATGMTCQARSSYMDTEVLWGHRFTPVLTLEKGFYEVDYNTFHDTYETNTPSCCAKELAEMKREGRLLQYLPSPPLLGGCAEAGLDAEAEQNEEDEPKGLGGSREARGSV
Nature of the data set: GIRK1/4 in vitro activity assay (IonWorks Quattro population patch clamp). The data set is classed as cell-based. The settings on record: GIRK 1/4 HEK293 stable cells, inward potassium current; read-out: inhibitory activity (IC50). How it is done: The GIRK1/4 activity of the parent compounds formed after cleavage upon hydrolysis of the phosphoric acid ester group of the compounds according to the present disclosure was assessed by the following in vitro method.
• a. External buffer: 10 mM NaCl, 50 mM Na Gluconate, 80 mM K Gluconate, 1.8 mM CaCl2, 1 mM MgCl2, 10 mM HEPES, 10 mM Glucose, pH 7.4; osmolarity […]. • b. Internal buffer: 30 mM KCl, 100 mM K Gluconate, 1 mM MgCl2, 10 mM HEPES, 1 mM EGTA, 10 mM NaCl, pH 7.2; osmolarity […].
• c. Prepare seven-fold compound dilution series (10 mM to 20 μM) in 100% DMSO, in 384-well polypropylene plates. • d. Propafenone (Sigma Aldrich, catalog number P4670) was used as a positive control and DMSO for neutral control. • e. Resuspend 1 μl of compounds in DMSO into 66.7 μl external buffer in 384-well polypropylene plate and load into Plate 1 section of Molecular Devices Quattro.
• f. […]
Quattro was controlled using IonWorks v2 software to perform the following steps: • p. […] Measured magnitude of inward potassium current at time point between 1200-1220 ms from start of Pulse 1 (i.e. during the voltage ramp phase). • t. […]
IC50 values were calculated by plotting the percentage of current inhibition (normalized to the DMSO-only control) as a function of compound concentration using standard data analysis software.

A short description of data set [2]: In vitro conversion of pro-drug to parent compound by intestinal S9 fraction (rat). The settings on record: Sprague-Dawley, pooled intestinal S9 fraction, 37° C., read-out: T1/2 of conversion to the parent compound. It counts as in vitro ADME. How it is done: (§1) Drug stock solutions (100 μM) were prepared in methanol by two subsequent 1:10 dilutions from 10 mM DMSO drug solutions.
(§2) Frozen pooled intestinal S9 fractions (final protein concentration 2 mg/mL), alamethicin (25 μg/mg). 0.IM phosphate buffer containing 1 mM magnesium chloride and NADPH (final concentration 1 mM) plus UDPGA (final concentration 3.5 mM) are pre incubated at 37° C. prior to the addition of test compound (final substrate concentration 1 μM; final DMSO concentration 0.25%) to initiate the reaction. An additional incubation is performed in the absence of cofactors (NADPH, UDPGA).
(§3) Incubation plate was incubated on a shaker with temperature controlled at 37° C. Sequential samples were removed at designated timepoints (0, 5, 15, 30, 60 and 120 mins) and quenched with 4 volumes of ice-cold acetonitrile (containing internal standard glyburide). At the end of the incubation, samples plates were centrifuged, and supernatants reconstituted in water. Samples were then analyzed by LC/MS to assess parent depletion.
(§4) A ratio of compound peak area/internal standard peak area for each time point is generated and subsequently expressed as % of the response at time 0. The percentage stability of a compound in intestinal S9 solution at time t is calculated as detailed in Equation 1: […]
(§5) The half-life (t1/2) is calculated using the Equation 2: […]

Data set [3] can be described thus: In vitro conversion of pro-drug to parent compound by intestinal S9 fraction (human). The settings on record: pooled intestinal S9 fraction, 37° C., read-out: T1/2 of conversion to the parent compound. The data set is classed as in vitro ADME. How it is done:
as §1, §2, §3, §4, §5

Data set [4] in a line: In vitro conversion of pro-drug to parent compound by intestinal S9 fraction (dog). Conditions: beagle, pooled intestinal S9 fraction, 37° C., read-out: T1/2 of conversion to the parent compound. It counts as in vitro ADME. As to the method: as §1, §2, §3, §4, §5

`CNC(=O)[C@@H](O)COc1ncc(Cl)c2c1c(=O)cc(C)n2-c1c(Cl)cc(OCCOP(=O)(O)O)cc1Cl` [Example 1, (S)-2-(3,5-dichloro-4-(8-chloro-5-(2-hydroxy-3-(methylamino)-3-oxopropoxy)-2-methyl-4-oxo-1,6-naphthyridin-1 (4H)-yl)phenoxy)ethyl dihydrogen phosphate]: the IC50 in data set [1] is greater than 10 µM.

As for `CNC(=O)[C@@H](O)COc1ncc(Cl)c2c1c(=O)cc(C)n2-c1c(Cl)cc(OCCOP(=O)(O)O)cc1Cl.[Ca]` [Example 1a, (S)-2-(3,5-dichloro-4-(8-chloro-5-(2-hydroxy-3-(methylamino)-3-oxopropoxy)-2-methyl-4-oxo-1,6-naphthyridin-1(4H)-yl)phenoxy)ethyl dihydrogen phosphate calcium salt], the half-life at 1 μM in data set [2] (rat intestinal S9, + cofactor (NADPH, UDPGA)) was 14.4 min; in data set [2] (rat intestinal S9, − cofactor), 16.5 min; in data set [3] (human intestinal S9, + cofactor (NADPH, UDPGA)) it was 88.7 min; in data set [3] (human intestinal S9, − cofactor), 86.7 min; in data set [4] (dog intestinal S9, + cofactor (NADPH, UDPGA)), 45.3 min; in data set [4] (dog intestinal S9, − cofactor) it was 46 min.

Consider `CNC(=O)[C@H](COc1ncc(Cl)c2c1c(=O)cc(C)n2-c1c(Cl)cc(OCCO)cc1Cl)OP(=O)(O)O` [Example 2, (S)-3-((8-chloro-1-(2,6-dichloro-4-(2-hydroxyethoxy)phenyl)-2-methyl-4-oxo-1,4-dihydro-1,6-naphthyridin-5-yl)oxy)-1-(methylamino)-1-oxopropan-2-yl dihydrogen phosphate], for which the IC50 in data set [1] is greater than 10 µM.

The values are drawn from US20240391941A1, “NAPHTHYRIDINONE DERIVATIVES FOR THE TREATMENT OF A DISEASE OR DISORDER” (Novartis AG, priority 2023, published 2024).
